Columns and labels:
hNT neurons [1] = assay: TH expression of hNT neurons treated with lithium chloride (TH immunoreactivity counts); format: cell-based, human; settings: 1.0 mM, 5-day cultures
Method: A small-scale dose range study analyzed whether therapeutic (0.5-1.0 mM) and clinically toxic (2.0-6.0 mM) concentrations of LiCl enhanced TH expression in cells treated for 6 weeks with retinoic acid and then LiCl. The control and lithium-treated cultures (0.5, 1.0 and 3.0 mM) were scored for TH immunoreactivity, which was expressed as the number of TH-positive (TH+) cells/well. For TH immunohistochemistry the cells were rinsed in 0.1 M phosphate buffered saline (PBS), fixed in 4% paraformaldehyde, and then again rinsed in PBS. […] To determine the percentage of cells labeled by a particular antibody in representative experiments, the numbers of labeled and unlabeled cells were assessed in a blind-coded manner using a 20X objective and a photographic frame. […]
To investigate the effect of various doses of LiCl on tyrosine hydroxylase expression in 5 DIV hNT neurons, we determined the number of unlabeled and TH+ neurons in a blind coded manner using a 20X objective and a photographic frame (field=0.3 mm^2). […] The dose responsive tests were analyzed using a one-way analysis of variance (ANOVA) followed by post hoc comparisons using Bonferroni-Dunn analysis.

hNT neurons [2] = assay: Soma size and neurite outgrowth of TH+ hNT cells (image analysis); format: cell-based, human; settings: 5 days in culture
Method: The same series of slides immunostained for TH were employed to measure the soma size (μm^2) and neurite outgrowth (μm) of appropriately 50 TH+ cells per representative culture experiment using a computerized image analysis program (Image-Pro Plus, Media Cybernetics, Inc., Silver Springs, Md.) at 20X objective. The results in the morphological assessment study are reported as mean ±SEM and were analyzed using Student's t-test.

| SMILES | numbers of TH+ hNT cells vs control (hNT neurons [1]) | neurite outgrowth vs control (hNT neurons [2]) | soma size vs control (hNT neurons [2]) |
| --- | --- | --- | --- |
| [Cl-].[K+] [KCl] | not significantly different | did not significantly differ from control values | not significantly different from control |
| [Cl-].[Na+] [NaCl] | not significantly different | did not significantly differ from control values | not significantly different from control |

Reference: patent US20020192194A1, “Production and use of dopaminergic cells to treat dopaminergic deficiencies” (priority 2000, published 2002)
